From patent US5869675A, “Lactacystin derivatives” (The Kitasato Institute, priority 1994, dated 1999)
Read-outs that look alike come from different tables or passages of the source.

Key:
[1] = test system: Neuro 2A cells; assay: Activity of neuritogenesis (bipolar outgrowth of neurites) in Neuro 2A cells, minimum effective dose; format: cell-based, mouse; details: for minimal effective concentration: Mus musculus, N2a, read-out: Minimum effective dose (A)
Experimental: (§1) Morphological changes of Neuro 2A cells are observed according to the method of Baglioni et al. [J. Biol. Chem., 266: 18620 (1991)].
Neuro 2A cells were plated at a density of 1×10^4 cells/cm^2 in a 24-hole plate, and cultured in MEM-H with 10% FBS.

[2] = Cytotoxic action on Neuro 2A cells; format: cell-based; details: mouse, no attached cells observed in more than 2/3 of the whole cells, read-out: Cytotoxicity (B)
Experimental: as §1
Neuro 2A cells were plated at a density of 1×10^4 cells/cm^2 in a 24-hole plate, and cultured in MEM-H with 10% FBS. On the next day, lactacystin or lactacystin derivatives were added at the concentration of 0.05-100 μM, and morphological changes of the cells with time were observed by phase contrast microscopy.

[3] = test system: Neuro 2A cells; assay: Selective toxicity (ratio of cytotoxicity/minimum effective dose); format: cell-based, mouse
Source text: 2. No specific test method for selective toxicity of the compounds is known, therefore the selective toxicity is defined as the ratio of cytotoxicity/minimum effective dose.

[4] = test system: intracelluar cAMP level in Neuro 2A; assay: Transient increase in the intracellular cAMP level in mouse neuroblastoma cell line Neuro 2A; format: cell-based
[5] = cited from earlier work
[6] = Neuro 2A cells, concentration in which approximately 20% of whole cells showed bipolar outgrowth of neurites

| SMILES | minimal effective concentration [1, 6] [µM] | MCC [2] [µM] | Selective toxicity (B/A) [3] | minimal effective concentration [1] [µM] | neuritogenesis ([1]; mouse neuroblastoma cell line Neuro 2A) | intracelluar cAMP level [4] | cytotoxicity ([5]; known compound) | neuritogenesis activity ([5]; known from literature) |
| --- | --- | --- | --- | --- | --- | --- | --- | --- |
| COC(=O)[C@]1([C@@H](O)C(C)C)NC(=O)[C@H](C)[C@@H]1O [Example 1, .tau.-lactam methyl ester] | 1.56 | 12.5 | 8 |  |  |  |  |  |
| CC(C)[C@H](O)[C@@]1(C(=O)SCCC(=O)O)NC(=O)[C@H](C)[C@@H]1O [Example 2, des-N-acetylaminolactacystin] | 0.2 | 1.56 | 8 |  |  |  |  |  |
| CCOC(=O)CCSC(=O)[C@]1([C@@H](O)C(C)C)NC(=O)[C@H](C)[C@@H]1O [Example 3, des-N-acetylaminolactacystin ethyl ester] | 0.2 | 3.12 | 16 |  |  |  |  |  |
| CC(C)[C@H](O)[C@@]1(C(=O)SCCN)NC(=O)[C@H](C)[C@@H]1O [Example 4, des-N-acetyldescarboxylactacystin] | 3.12 | 25 | 8 |  |  |  |  |  |
| COC(=O)[C@H](CSC(=O)[C@]1([C@@H](O)C(C)C)NC(=O)[C@H](C)[C@@H]1O)NC(C)=O [Example 5, lactacystin methyl ester] | 0.78 | 6.25 | 8 |  |  |  |  |  |
| C=CCOC(=O)[C@H](CSC(=O)[C@]1([C@@H](O)C(C)C)NC(=O)[C@H](C)[C@@H]1O)NC(C)=O [Example 6, lactacystin allyl ester] | 0.2 | 6.25 | 31 |  |  |  |  |  |
| CCSC(=O)[C@]1([C@@H](O)C(C)C)NC(=O)[C@H](C)[C@@H]1O [Example 7, 3-hydroxy-2-(1-hydroxy-2-methylpropyl)-4-methyl-5-oxo-2-pyrrolidine-ethanethiocarboxylate] | 0.2 | 1.56 | 8 |  |  |  |  |  |
| CCCSC(=O)[C@]1([C@@H](O)C(C)C)NC(=O)[C@H](C)[C@@H]1O [Example 8] | 0.2 | 3.12 | 16 |  |  |  |  |  |
| CC(C)SC(=O)[C@]1([C@@H](O)C(C)C)NC(=O)[C@H](C)[C@@H]1O [Example 9, 3-hydroxy-2-(1-hydroxy-2-methylpropyl)-4-methyl-5-oxo-2-pyrrolidine-iso-propanethiocarboxylate] | 0.4 | 12.5 | 31 |  |  |  |  |  |
| CCCCSC(=O)[C@]1([C@@H](O)C(C)C)NC(=O)[C@H](C)[C@@H]1O [Example 10, 3-hydroxy-2-(1-hydroxy-2-methylpropyl)-4-methyl-5-oxo-2-pyrrolidine-butanethiocarboxylate] | 0.4 | 12.5 | 31 |  |  |  |  |  |
| CCC(C)SC(=O)[C@]1([C@@H](O)C(C)C)NC(=O)[C@H](C)[C@@H]1O (stereo partly shown) [Example 11, 3-hydroxy-2-(1-hydroxy-2-methylpropyl)-4-methyl-5-oxo-2-pyrrolidine-1-methyl-1-propanethiocarboxylate] | 0.4 | 12.5 | 31 |  |  |  |  |  |
| CCCCCSC(=O)[C@]1([C@@H](O)C(C)C)NC(=O)[C@H](C)[C@@H]1O [Example 12, 3-hydroxy-2-(1-hydroxy-2-methylpropyl)-4-methyl-5-oxo-2-pyrrolidine-1-pentanethiocarboxylate] | 0.8 | 12.5 | 16 |  |  |  |  |  |
| CC(C)[C@H](O)[C@@]1(C(=O)Sc2ccccc2)NC(=O)[C@H](C)[C@@H]1O [Example 13, 3-hydroxy-2-(1-hydroxy-2-methylpropyl)-4-methyl-5-oxo-2-pyrrolidine-phenythiocarboxylate] |  | 12.5 | 16 | 0.8 |  |  |  |  |
| CC(C)[C@H](O)[C@@]1(C(=O)SCCO)NC(=O)[C@H](C)[C@@H]1O [Example 14, 3-hydroxy-2-(1-hydroxy-2-methylpropyl)-4-methyl-5-oxo-2-pyrrolidine-2-hydroxyethanethiocarboxylate] | 3.12 | 25 | 8 |  |  |  |  |  |
| CC(C)[C@H](O)[C@@]1(C(=O)SCCCO)NC(=O)[C@H](C)[C@@H]1O [Example 15, 3-hydroxy-2-(1-hydroxy-2-methylpropyl)-4-methyl-5-oxo-2-pyrrolidine-3-hydroxypropanethiocarboxylate] | 0.4 | 12.5 | 31 |  |  |  |  |  |
| CC(C)[C@H](O)[C@@]1(C(=O)Sc2ccc(O)cc2)NC(=O)[C@H](C)[C@@H]1O [Example 16, 3-hydroxy-2-(1-hydroxy-2-methylpropyl)-4-methyl-5-oxo-2-pyrrolidine-4-hydroxyphenylthiocarboxylate] | 0.4 | 12.5 | 31 |  |  |  |  |  |
| CNCCSC(=O)[C@]1([C@@H](O)C(C)C)NC(=O)[C@H](C)[C@@H]1O [Example 17, 3-hydroxy-2-(1-hydroxy-2-methylpropyl)-4-methyl-5-oxo-2-pyrrolidine-2-N-methylethanethiocarboxylate] | 0.8 | 6.25 | 8 |  |  |  |  |  |
| CC(C)[C@H](O)[C@@]1(C(=O)SCCN(C)C)NC(=O)[C@H](C)[C@@H]1O [Example 18, 3-hydroxy-2-(1-hydroxy-2-methylpropyl)-4-methyl-5-oxo-2-pyrrolidine-2-N-dimethyl-ethanethiocarboxylate] | 0.2 | 6.25 | 31 |  |  |  |  |  |
| CC(C)[C@H](O)[C@@]1(C(=O)SCC(=O)O)NC(=O)[C@H](C)[C@@H]1O [Example 19, 3-hydroxy-2-(1-hydroxy-2-methylpropyl)-4-methyl-5-oxo-2-pyrrolidine-1-carboxymethylthiocarboxylate] | 0.4 | 12.5 | 31 |  |  |  |  |  |
| COC(=O)CSC(=O)[C@]1([C@@H](O)C(C)C)NC(=O)[C@H](C)[C@@H]1O [Example 20, 3-hydroxy-2-(1-hydroxy-2-methylpropyl)-4-methyl-5-oxo-2-pyrrolidine-methoxycarbonylthiocarboxylate] | 0.8 | 12.5 | 16 |  |  |  |  |  |
| COC(=O)CCSC(=O)[C@]1([C@@H](O)C(C)C)NC(=O)[C@H](C)[C@@H]1O [Example 21, 3-hydroxy-2-(1-hydroxy-2-methylpropyl)-4-methyl-5-oxo-2-pyrrolidine-methoxycarbonylethylthiocarboxylate] | 0.2 | 1.56 | 8 |  |  |  |  |  |
| CC(C)[C@H](O)[C@@]1(C(=O)Sc2ccccn2)NC(=O)[C@H](C)[C@@H]1O [Example 22, 3-hydroxy-2-(1-hydroxy-2-methylpropyl)-4-methyl-5-oxo-2-pyrrolidine-2-pyridylthiocarboxylate] | 0.8 | 12.5 | 16 |  |  |  |  |  |
| CC(C)[C@H](O)[C@@]1(C(=O)Sc2ccncc2)NC(=O)[C@H](C)[C@@H]1O [Example 23, 3-hydroxy-2-(1-hydroxy-2-methylpropyl)-4-methyl-5-oxo-2-pyrrolidine-4-pyridylthiocarboxylate] | 0.8 | 12.5 | 16 |  |  |  |  |  |
| CC(C)[C@H](O)[C@@]1(C(=O)SCCC(N)C(=O)O)NC(=O)[C@H](C)[C@@H]1O (stereo partly shown) [Example 24] | 1.56 | 25 | 16 |  |  |  |  |  |
| CC(SC(=O)[C@]1([C@@H](O)C(C)C)NC(=O)[C@H](C)[C@@H]1O)C(=O)NCC(=O)O (stereo partly shown) [Example 25, 2-S-propionylglycine-3-hydroxy-2-(1-hydroxy-2-methylpropyl)-4-methyl-5-oxo-2-pyrrolidinecarboxylate] | 1.56 | 12.5 | 8 |  |  |  |  |  |
| CC(C)[C@H](O)[C@@]1(C(=O)SC[C@H](NC(=O)CC[C@H](N)C(=O)O)C(=O)NCC(=O)O)NC(=O)[C@H](C)[C@@H]1O [Example 26, glutathione-3-hydroxy-2-(1-hydroxy-2-methylpropyl)-4-methyl-5-oxo-2-pyrrolidinethiocarboxylate] | 0.8 | 25 | 31 |  |  |  |  |  |
| CC(=O)N[C@@H](CSC(=O)[C@]1([C@@H](O)C(C)C)NC(=O)[C@H](C)[C@@H]1O)C(=O)O [lactacystin] |  |  |  |  | induce neuritogenesis | cause a transient increase in the intracelluar cAMP level | highly cytotoxic | having neuritogenesis activity |
